Reference: the Kinase Knowledgebase extract (Sharma et al. 2016)
Each block holds one molecule with its values, some of them ahead of it. Numbered stars: 1 amine (or outer) side, 2 acyl side, 3 side chain; on linkers, the order of the positions; unused ones are H or OH. Square brackets hold non-standard residues; d marks the D form. Peptide text beside a SMILES is read from it. ξ: configuration not given here. X2 = O=CC(=O)CCc1ccc(CC(N[*:1])C(=O)[*:2])cc1; pY = N[C@@H](Cc1ccc(OP(=O)(O)O)cc1)C(=O)O; Ile(3ξ) = CCC(C)[C@H](N)C(=O)O

Key:
MAPK14 (human) [1] = biological target: MAPK14 (human) (UniProt Q16539); experiment: p38 --- TNF Inhibition (PBMC cells)
Chain of MAPK14 (human) (Q16539 whole entry, looked up): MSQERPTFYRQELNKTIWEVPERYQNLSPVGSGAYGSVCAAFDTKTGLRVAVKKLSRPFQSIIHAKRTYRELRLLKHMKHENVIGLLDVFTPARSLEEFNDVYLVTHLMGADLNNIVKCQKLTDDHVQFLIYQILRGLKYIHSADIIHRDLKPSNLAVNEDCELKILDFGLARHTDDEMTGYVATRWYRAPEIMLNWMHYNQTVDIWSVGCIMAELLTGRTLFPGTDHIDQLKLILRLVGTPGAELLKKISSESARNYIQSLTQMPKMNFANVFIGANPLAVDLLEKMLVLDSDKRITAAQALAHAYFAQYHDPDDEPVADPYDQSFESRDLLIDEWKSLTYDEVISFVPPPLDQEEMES

MAPK14 (human) [2] = biological target: MAPK14 (human) (UniProt Q16539); experiment: p38-mediated TNF-alpha Inhibition (LPS-Stimulated PBMCs); conditions: pbmc
EGFR (murine) [3] = biological target: EGFR (murine) (UniProt P00533); conditions: nih3t3
Chain of EGFR (murine) (P00533 whole entry, looked up): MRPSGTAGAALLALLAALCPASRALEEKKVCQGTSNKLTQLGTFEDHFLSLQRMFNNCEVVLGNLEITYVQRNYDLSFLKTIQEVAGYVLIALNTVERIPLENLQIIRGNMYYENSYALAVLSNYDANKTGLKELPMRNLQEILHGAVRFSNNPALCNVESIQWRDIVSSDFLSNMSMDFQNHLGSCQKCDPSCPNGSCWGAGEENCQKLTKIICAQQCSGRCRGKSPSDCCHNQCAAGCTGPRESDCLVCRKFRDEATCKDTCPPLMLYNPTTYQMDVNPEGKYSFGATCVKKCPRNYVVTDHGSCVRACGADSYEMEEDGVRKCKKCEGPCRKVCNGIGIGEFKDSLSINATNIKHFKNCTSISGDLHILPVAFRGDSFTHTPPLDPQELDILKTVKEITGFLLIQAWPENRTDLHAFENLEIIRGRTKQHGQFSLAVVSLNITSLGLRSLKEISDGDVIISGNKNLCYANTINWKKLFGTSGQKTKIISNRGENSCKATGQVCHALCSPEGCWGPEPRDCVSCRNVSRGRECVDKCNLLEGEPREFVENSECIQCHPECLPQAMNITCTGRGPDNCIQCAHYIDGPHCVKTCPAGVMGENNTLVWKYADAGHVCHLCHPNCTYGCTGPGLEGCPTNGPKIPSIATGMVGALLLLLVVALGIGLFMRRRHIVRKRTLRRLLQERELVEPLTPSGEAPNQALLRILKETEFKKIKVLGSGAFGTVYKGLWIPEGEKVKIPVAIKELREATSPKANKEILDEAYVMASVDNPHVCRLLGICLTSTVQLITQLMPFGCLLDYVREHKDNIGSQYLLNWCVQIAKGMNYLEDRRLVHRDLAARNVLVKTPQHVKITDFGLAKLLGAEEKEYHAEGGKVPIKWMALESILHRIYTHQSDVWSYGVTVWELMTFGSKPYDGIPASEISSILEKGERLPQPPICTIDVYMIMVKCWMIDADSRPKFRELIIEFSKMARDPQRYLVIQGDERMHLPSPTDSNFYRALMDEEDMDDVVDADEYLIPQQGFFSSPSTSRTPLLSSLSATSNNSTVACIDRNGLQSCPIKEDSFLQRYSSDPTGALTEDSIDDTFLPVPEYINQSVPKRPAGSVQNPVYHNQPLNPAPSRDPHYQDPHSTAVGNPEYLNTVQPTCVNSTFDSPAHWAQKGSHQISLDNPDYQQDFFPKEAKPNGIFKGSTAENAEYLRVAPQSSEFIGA

EGFR [4] = biological target: EGFR (UniProt P00533)
Chain of EGFR (P00533 whole entry, looked up): as above

EGFR (mouse) [5] = biological target: EGFR (mouse) (UniProt P00533); conditions: balb/mk
EGFR (human) [6] = biological target: EGFR (human) (UniProt P00533)
Chain of EGFR (human) (P00533 whole entry, looked up): as above

MAPK14 (human) [7] = biological target: MAPK14 (human) (UniProt Q16539); experiment: Cellular Inhibition of MAPK14 Kinase in A549 Cells
CDK2 [8] = biological target: CDK2 (UniProt P24941); experiment: Enzyme Assay
CDK2 [9] = biological target: CDK2 (UniProt P24941); experiment: Enzyme Assay; remark: listed apart in the source
CDK2 (human) [10] = biological target: CDK2 (human) (UniProt P24941); experiment: Enzyme Assay
CDK2 (human) [11] = biological target: CDK2 (human) (UniProt P24941); experiment: Enzyme Assay; remark: listed apart in the source
MAPK14 [12] = biological target: MAPK14 (UniProt Q16539); experiment: Cascade Assay for Inhibitors of the MAP Kinase Pathway
Chain of MAPK14 (Q16539 whole entry, looked up): as the sequence (Q16539 whole entry, looked up) above

EGFR (human) [13] = biological target: EGFR (human) (UniProt P00533); conditions: a431
MAPK14 (human) [14] = biological target: MAPK14 (human) (UniProt Q16539); experiment: TNFalpha Inhibition; conditions: pbmc
MAPK14 [15] = biological target: MAPK14 (UniProt Q16539); experiment: CSBP Inhibition
EGFR [16] = biological target: EGFR (UniProt P00533); remark: listed apart in the source
EGFR [17] = biological target: EGFR (UniProt P00533); remark: listed apart in the source
EGFR (murine) [18] = biological target: EGFR (murine) (UniProt P00533); conditions: f/l-herc
EGFR (mouse) [19] = biological target: EGFR (mouse) (UniProt P00533); conditions: Swiss 3T3
EGFR (murine) [20] = biological target: EGFR (murine) (UniProt P00533); conditions: nih3t3/c7
EGFR [21] = biological target: EGFR (UniProt P00533); remark: listed apart in the source
EGFR [22] = biological target: EGFR (UniProt P00533); conditions: balb/c 3t3
EGFR [23] = biological target: EGFR (UniProt P00533); experiment: Inhibition of EGFr Enzyme
MAPK14 (human) [24] = biological target: MAPK14 (human) (UniProt Q16539); experiment: Cell-Based Assay; conditions: a375

Compound: O=c1ncn2nc(Sc3ccc(Cl)c(Cl)c3)ccc2c1-c1c(Cl)cccc1Cl
- IC50 (MAPK14 (human) [1]): 2.2 µM

Compound: COC(=O)c1ccccc1Sc1ccc2c(-c3c(Cl)cccc3Cl)c(=O)ncn2n1
- IC50 (MAPK14 (human) [2]): 0.37 µM

Compound: COc1ccc(/C=C/c2cnc3cc(OC)c(OC)cc3c2)cc1
- IC50 (EGFR [4]): > 20 µM

Compound: CC(C)(C)c1cc(C=C(C#N)C(N)=S)cc(C(C)(C)C)c1
- IC50 (EGFR (human) [13]): 20 µM

Compound: CC(=O)OCCCCc1nc(-c2ccc(F)cc2)c(-c2ccncc2)n1COCC[Si](C)(C)C
- inhibition (MAPK14 [15]; concentration not given here): 74%

Compound: CCOC(=O)C(C#N)=Cc1cc(C(C)(C)C)cc(C(C)(C)C)c1
- IC50 (EGFR (human) [13]): 20 µM

Compound: C#Cc1cccc(Nc2ncnc3cc(OC)c(OCCCCCCC(=O)O)cc23)c1
- IC50 (EGFR (human) [6]): ≤ 0.1 µM

Compound: Oc1cc2cc(-c3cccnc3)cnc2cc1O
- IC50 (EGFR [4]): 1.25 µM

Compound: COc1ccc(OC)c(/C=C2\C(=O)Nc3ccccc32)c1
- IC50 (EGFR (murine) [3]): 11 µM

Compound: CCC(C)[C@H](NC(=O)[C@H](CCC(=O)O)NC(=O)[C@H](CCC(=O)O)NC(=O)C(Cc1ccc(CCC(=O)C=O)cc1)NC(C)=O)C(=O)N[C@@H](CCC(=O)O)C(=O)O (stereo not given in full) (Ac-[X2]EE[Ile(3ξ)]E-OH)
- IC50 (EGFR [17]): ≤ 185 µM

Compound: Cc1cc2ncc(-c3cccs3)nc2cc1C
- IC50 (EGFR (mouse) [19]): > 30 µM

Compound: O=C(N(c1ncc2ncnc(Nc3ccc(F)c(Cl)c3)c2n1)C1CCNCC1)C(F)(F)F
- IC50 (EGFR (murine) [18]): > 20 µM

Compound: COC(=O)CCc1c(C)c[nH]c1C=C1C(=O)Nc2ccccc21
- IC100 (EGFR (murine) [20]): 100 µM

Compound: O=C1NCN2N=C(Sc3ccc(F)cc3)C=CC2=C1c1c(Cl)cccc1Cl
- IC50 (MAPK14 (human) [2]): 0.39 µM

Compound: COc1ccc2ncnc(Nc3cccc(Br)c3)c2c1OC
- IC50 (EGFR [21]): 1.37 µM

Compound: Brc1cccc(Nc2ncnc3c2C2CCCCC2N3)c1 (stereo not given)
- IC50 (EGFR [22]): 0.5 µM

Compound: O=C1Nc2ccccc2C1=Cc1ccc(N2CCOCC2)cc1
- IC50 (EGFR (murine) [20]): 20 µM

Compound: C[S+]([O-])c1ccc(-c2ncn(C3CCN(CCC(=O)O)CC3)c2-c2ccnc([S+](C)[O-])n2)cc1 (stereo not given)
- IC50 (MAPK14 [15]): > 50 µM

Compound: CCC(C)[C@H](NC(=O)[C@H](CCC(=O)O)NC(=O)[C@H](CCC(=O)O)NC(=O)[C@H](Cc1ccc(OP(=O)(O)O)cc1)NC(C)=O)C(=O)N[C@@H](CCC(=O)O)C(=O)O (stereo not given in full) (Ac-[pY]EE[Ile(3ξ)]E-OH)
- IC50 (EGFR [17]): ≤ 0.5 µM

Compound: CCOC(=O)CCc1c(C=C2C(=O)Nc3ccccc32)[nH]c(C(=O)OCC)c1CC(=O)OCC
- IC50 (EGFR (murine) [20]): 50 µM

Compound: Cc1cccc(Nc2ncnc3cc(NCCCN4CCCCC4)ncc23)c1
- IC50 (EGFR [23]): 0.0056 µM

Compound: O=C1Nc2ccc(I)cc2/C1=C/c1cc(Br)c(O)c(Br)c1
- IC50 (MAPK14 (human) [24]): > 10 µM

Compound: Cc1c(-c2ccccc2)[nH]c2ncnc(Nc3cccc(Cl)c3)c12
- IC50 (EGFR (mouse) [5]): > 50 µM

Compound: O=C1Nc2ccc(Cl)cc2/C1=C1/Nc2ccccc2C1=O
- IC50 (CDK2 [8]): 0.55 µM
- IC50 (CDK2 [9]): 0.75 µM
- IC50 (CDK2 (human) [10]): 0.75 µM
- IC50 (CDK2 (human) [11]): 0.55 µM

Other lines, results leading:

- IC50 (EGFR (murine) [3]): > 100 µM
Compound: O=C1Nc2ccccc2/C1=C/c1ccccc1

- IC50 (EGFR (mouse) [5]): > 50 µM
Compound: Cc1cccc(Nc2ncnc3[nH]c4c(c23)CCCC4)c1

- IC50 (EGFR (human) [6]): ≤ 0.1 µM
Compound: C#Cc1cc(Nc2ncnc3cc(OC)c(OCCCCCCC(=O)O)cc23)ccc1O

- IC50 (MAPK14 (human) [7]): 17 µM
Compound: CNc1nccc(-c2cn(C(C)C)nc2-c2cc(Cl)cc(NS(C)(=O)=O)c2F)n1

- IC50 (CDK2 [8]): > 1000 µM
- IC50 (CDK2 [9]): 70 µM
- IC50 (CDK2 (human) [10]): 70 µM
- IC50 (CDK2 (human) [11]): > 1000 µM
Compound: O=C1/C(=C2\Nc3ccccc3C2=O)Nc2ccccc21

- IC50 (MAPK14 [12]): 3 µM
Compound: COc1ccc(CN(Cc2ccc(OC)cc2)S(=O)(=O)c2cc(C(=O)O)c(Nc3ccc(I)cc3Cl)c(F)c2F)cc1

- IC50 (MAPK14 (human) [14]): 7 µM
Compound: Cc1ccc(NC(=O)c2ccnc(N3CCOCC3)c2)cc1-n1cnc2c(N(C)CCCN(C)C)cccc2c1=O

- IC50 (EGFR [4]): > 20 µM
Compound: COc1cc2cc(C3C=CC=C3)cnc2cc1OC

- IC50 (MAPK14 [15]): < 50 µM
Compound: CSc1ccc(-c2ncn(C3CCN(CCC(=O)O)CC3)c2-c2ccnc(SC)n2)cc1

- IC50 (MAPK14 (human) [14]): 2 µM
Compound: Cc1ccc(NC(=O)c2ccnc(N3CCOCC3)c2)cc1-n1cnc2ccc(N(C)CCCN(C)C)cc2c1=O

- IC50 (EGFR [16]): 0.08 µM
Compound: Ic1cccc(Nc2ncnc3ccccc23)c1

- IC50 (EGFR (murine) [18]): > 10 µM
Compound: CN1C2CC[C@@]1(Nc1ncc3ncnc(Nc4ccc(F)c(Cl)c4)c3n1)CC(O)C2 (stereo not given in full)

- IC50 (EGFR (mouse) [19]): > 30 µM
Compound: Cc1nc2cc3nc(-c4cccs4)cnc3cc2n1C

- IC50 (EGFR [16]): 0.9 µM
Compound: O=[N+]([O-])c1ccc2ncnc(Nc3cccc(Br)c3)c2c1

- IC50 (EGFR (human) [6]): ≤ 0.1 µM
Compound: C#Cc1cccc(Nc2ncnc3cc(OC)c(OCCCCC(=O)O)cc23)c1
